The test system of data set [1] is PTEN. Kind of data set: PTEN mRNA reduction in HeLa cells, dose response (Example 64). The format is cell-based, human. Particulars: real-time PCR, 1.56-50 nM. The protocol: A dose response experiment was performed targeting PTEN in human HeLa cells to determine the effects of placement of sugar and internucleoside linkages within ssRNAs. More specifically, the modified ssRNAs were tested for their ability to reduce PTEN mRNA in cultured cells. The modified ssRNAs are shown below, and contain 2′-OMe and 2′-fluoro modified nucleosides, two 2′-O-MOE modified nucleosides at the 3′-terminus, and seven phosphorothioate linkages at the 3′-terminus of the ssRNAs.
HeLa cells were treated with ssRNAs shown below at concentrations of 1.56 nM, 3.13 nM, 6.25 nM, 12.5 nM, […] and 50 nM using methods described herein. Levels of mRNA were determined using real-time PCR methods as described herein. The IC50 for each ssRNA was determined.

Data set [2] in a line: ssRNA stability in hepatocyte cell homogenate assay (Example 65). Format: in vitro ADME. The following applies: mouse hepatocyte homogenate, LC-MS; Test 1. The protocol:
Hepatocytes were harvested from bal/c mice in ice-cold hepatocyte wash media (William E Media) with fetal bovine serum, sedimented by centrifugation at 1000 g for 8 minutes and then washed with hepatocyte wash media. Hepatocytes were homogenized with RIPA buffer (50 mM Tris pH 7.5, 10 mM MgCl2, 150 mM NaCl, 0.5% NP-40 alternative, one tablet of Roche protease inhibitor #11836170001), and centrifuged at 14000 g for 15 minutes at 4° C. and the supernatant was removed and stored in ice. Protein concentration (BSA mg/mL) was determined with Bradford assay and adjusted to a final protein concentration of 2 mg/mL by addition of Ripa buffer volume or cell homogenate volume.
[…] were homogenized in a homogenation buffer (20 mM Tris, pH 8, 20 mM EDTA and 0.1 M NaCl in 0.5% NP-40) at time points 0, 5, 10, 20, 30, 40 and 60 minutes (Exception: 06/408877 at time points 0, 15, 30, 60, 120 and 240 mins, 06/409044, at time points 0, 0.5, 1, 2, 4, 8, and 18 hours). An internal standard (18/355868, a 27-mer, 2′-O-methoxyethyl-modified phosphorothioate oligonucleotide, or 19/116847, a 5-10-5 gappmer, 2′-O-methoxyethyl-modified phosphorothioate oligonucleotide) with concentration at 20 ug/g was added prior to extraction. Tissue samples were extracted with 70 μL of NH4OH and 240 μL of phenol/chloroform/isoamyl alcohol (25:24:1). The supernatant was removed after centrifugation at 14000 rpm for 2 min. The remaining extractant was vortexed with an additional […] of water and the aqueous layer was removed and combined with the supernatant after centrifugation at 14000 rpm for 2 minutes.
Triethylammonium acetate solution at 1M ([…]) was added to the supernatant. The aqueous layer of the mixture was loaded onto the pre-conditioned Biotage™ Phenyl Solid Phase Extraction Plate (SPE plate) after centrifugation at 9000 rpm for 20 minutes. The SPE plate was washed several times with water. The sample was then eluted with 1.5 mL of 1% TEA in 90% MeOH and filtered through the Protein Precipitation Plate (Phenomenex™). The elutent was evaporated to dryness and diluted to 200 μL with 50% quenching buffer (8 M urea, 50 mM EDTA) and water before sample injection.
An Agilent 1100 Series LC/MSD system was connected in-line to a mass spectrometry. Mass spectrometer was operated in the electrospray negative ionization mode. The nebulizer nitrogen gas was set at […] and the drying nitrogen gas was set at 12 L/min. The drying temperature was 325° C. Samples (25 μL/well) were introduced via an auto sampler and reversed-phase chromatography was carried out with an XBridge OST C18 2.5 μm 2.1 mm×50 mm HPLC column using a flow rate of 300 μL/min at 55° C. The ion pair buffers consisted of A: 5 mM tributylammonium acetate (TBAA) in 20% acetonitrile and B: […] TBAA in 90% acetonitrile and the loading buffer was 25 mM TBAA in 25% Acetonitrile. Separation was performed on a 30% to 70% B in 9 min and then 80% B in 11 min gradient.
Quantitative analysis of oligonucleotide and internal standard by extracted ion chromatograms of the most abundant ions was performed using MSD ChemStation software. The results are expressed as half-time (T1/2) in the table below.

For data set [3], the system named is PTEN. Kind of data set: PTEN mRNA reduction in HeLa cells, dose response (Example 72). Format: cell-based, human. Particulars: percent inhibition of PTEN mRNA, 0.167-50 nM. The protocol:
In accordance with the present disclosure, oligomeric compounds were synthesized and tested for their ability to reduce PTEN expression over a range of doses. Human HeLa cells were treated with the following oligomeric compounds. A dose comparison was evaluated with dose concentrations of 0.167, 0.5, 1.5, 5, 15 and 50 nM using methods described herein. Expression levels of PTEN were determined using real-time PCR and normalized to RIBOGREEN™ using methods described herein. The percent inhibition of PTEN mRNA was determined and the resulting dose-response curves were used to determine the IC50. The IC50s are listed below.

The nature of data set [4]: Phosphate stability in mouse serum (Example 68).
Experimental: Single-stranded oligomeric compounds were tested for stability in mouse serum.

e = 2'-O-(2-methoxyethyl) (MOE); {P} = phosphate; f = 2'-fluoro

For “P-UfUfGfUfCfUfCfUfGfGfUfCfCfUfUfAfCfUfUfAeAe (antisense UUGUCUCUGGUCCUUACUUAA; sugars from the 5' end f19 e2, 5' {P}, backbone not given here) [ISIS 404320]”, the IC50 amounted to 5.8 nM in data set [1] and 7.6 nM in data set [3]. Also, the “T1/2 Test 1” value in data set [2] is on record as 4 min. For the same substance, the T1/2 full length in data set [4] (four compounds tested separately, second table) is 24 min; in data set [4] (full compound with intact phosphorous moiety, first table), 24 min.

The values are drawn from patent US20130156845A1, “LIPID FORMULATED SINGLE STRANDED RNA” (ALNYLAM PHARMACEUTICALS, INC., priority 2010, published 2013).
